Assay results reported in patent US20110166079A1, “METHODS OF TREATING CANCER WITH APOE PEPTIDES” (COGNOSCI, INC., priority 2008, published 2011).

Experiments:
Akt kinase = experiment: LPS-induced phosphorylation of Akt kinase in BV2 microglial cells (Western blot densitometry); type: cell-based, mouse; conditions: 10 ng/mL LPS, 1 μM COG112, normalized to actin, FIG. 2C
Experimental: To determine if COG peptides could also suppress activation of the upstream Akt kinase, BV2 microglial cells were treated with 10 ng/mL LPS alone or in the presence of 1 μM COG112 (SEQ ID NO: 2) peptide. Cell lysates were run on 10% polyacrylamide gels and subsequently transferred to nitrocellulose membranes. Blots were probed with an anti-phospho-Akt antibody or an antibody to actin. Densitometry analysis of the western blots was conducted and the signals from phosphorylated Akt kinase were normalized to those from actin.

PP2A = biological target: T1, PP2A (Mus musculus, UniProt P63330); experiment: PP2A activity in RAW cells (immunoprecipitation / phosphate release); type: cell-based; conditions: 30 minutes, 2 μM COG112, 10 nM okadaic acid, FIG. 3
T1 construct: cells were lysed and PP2A was immunoprecipitated by adding an antibody targeted to the catalytic C-subunit of PP2A; endogenous in cells; host or cells: mouse macrophagic RAW cells
Experimental: Mouse macrophagic RAW cells were incubated with either 2 μM COG112 (SEQ ID NO: 2), 10 nM okadaic acid (an inhibitor of PP2A), or okadaic acid and COG112. After 30 minutes, cells were lysed and PP2A was immunoprecipitated by adding an antibody targeted to the catalytic C-subunit of PP2A. Half of the immunoprecipitate was separated by SDS-PAGE, blotted on to nitrocellulose, and probed with an anti-PP2AC antibody. The remaining portion was assayed for activity by adding 125 μL assay cocktail containing a phospho-threonine substrate peptide to the immunoprecipitated enzyme. After incubating at 37° C. with shaking, a 25 μL aliquot was removed and added to an ammonium molybdate solution (Upstate) that chelates free phosphate and changes color upon chelate formation. Aliquots were removed at various time intervals and the amount of free phosphate released from the peptide was determined by comparison to a phosphate standard curve. The rate of phosphate release was determined by linear fit to the time course data and was normalized to the relative PP2A concentration. […] PP2A activity was reduced in the presence of okadaic acid alone as expected. […] Thus, the active pool of PP2A in a cell can be regulated by ApoE peptides.

B-CLL cells = experiment: Cytotoxicity on B-CLL cells from CLL patients (MTS assay)
Experimental: To determine whether COG peptides could counteract the overactivation of the Akt/NFkB pathway in B-CLL cells and effectively induce apoptosis, cytotoxicity testing was performed on freshly isolated B-CLL cells from CLL patients with COG peptides. Blood from CLL patients was collected and CD5+/CD19+ CLL cells were isolated using the RosetteSep™ Human B Cell Enrichment Cocktail. This method depletes whole blood of T cells, monocytes, and NK cells using a proprietary antibody cocktail containing anti-CD14, anti-CD2 and anti-CD16 antibodies to remove T cells, monocytes, and NK cells, respectively. The antibody cocktail crosslinks unwanted cells in human whole blood to multiple red blood cells forming immunorosettes thereby increasing the density of the rosetted cells, such that they pellet along with the free RBCs when centrifuged over a buoyant density medium such as Ficoll-Paque®. The highly enriched B-cell or B-CLL cells are left at the interface between Ficoll and the plasma.
COG peptides were applied to the isolated B-CLL cells (0.25×10^6 cells/well in a 96 well plate) for 72 hours, after which viable cells were assessed using the MTS assay ([…]).
Additional B-CLL cells and peripheral blood mononuclear cells (PBMC; i.e., normal B cells) were isolated from leukemia patients and normal volunteers, respectively, and were treated with a range of COG112 concentrations.

ERK, Akt, IκK and NFκB = experiment: Immunoblotting of phospho- and total ERK, Akt, IκK and NFκB in B-CLL cells; type: cell-based, human; conditions: 2 μM COG112, 3 hours, relative to untreated cells
Text: The results of the two previous series of experiments indicate that SET overexpression in CLL cells results in decreased PP2A activity which contributes to the persistence of an anti-apoptotic state in these cells. COG peptides, such as COG112, can induce apoptosis in CLL cells, which may occur through the binding of COG peptides to the SET protein, thereby relieving the suppression of PP2A activity. To further elucidate the mechanism of the cytotoxic effect of COG peptides on CLL cells, the effect of COG112 treatment on the phosphorylation state of key signal transduction proteins and PP2A activity in B-CLL cells is evaluated. […]
Immunoblotting is performed on the extracts from COG112 treated and untreated CLL cells to determine the relative levels of phospho-and total-(phosphorylated plus non-phosphorylated) ERK, Akt, IκK and NFκB. Specifically, cell extracts obtained by the method above will be analyzed to determine the protein concentration of each lysate using the BCA assay kit (Pierce). […] Protein bands are visualized and quantitated using an Odyssey Infrared scanner (LiCor). This method allows for simultaneous quantitation of the phospho-Akt using the emission of the 800 nm channel and of the total Akt using the emission of the 680 nm channel. Following the initial read, a rabbit anti-β-Actin antibody is incubated with the membrane for 1 hour and the membrane is washed. […]

T1 sequence (P63330 whole entry): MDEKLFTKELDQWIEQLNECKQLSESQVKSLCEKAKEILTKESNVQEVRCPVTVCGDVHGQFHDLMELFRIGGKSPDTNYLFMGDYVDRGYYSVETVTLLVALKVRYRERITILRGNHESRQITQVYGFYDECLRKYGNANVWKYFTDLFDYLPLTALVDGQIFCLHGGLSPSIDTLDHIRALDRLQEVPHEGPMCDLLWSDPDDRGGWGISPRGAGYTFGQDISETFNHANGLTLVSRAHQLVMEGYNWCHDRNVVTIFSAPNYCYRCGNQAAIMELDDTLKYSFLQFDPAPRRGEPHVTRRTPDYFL

“Ac-RQIKIWFQNRRMKWKKCLRVRLASHLRKLRKRLL-NH2 (N-terminus and C-terminus assumed) [COG112]” was tested, and the “LPS-induced phosphorylation of the Akt kinase” value (Akt kinase) was “significantly decreased”, the “PP2A activity (rate of phosphate release)” value (PP2A) was “increased” and the “Fold Change” value (B-CLL cells; EC50 relative to COG056 control) was 58.6. For the same substance, the EC50 (B-CLL cells; human, 72 hours) was 220 ± 130 nM and the “quantity of phosphorylated proteins (ERK, Akt, IκK, NFκB)” value (ERK, Akt, IκK and NFκB) was “significant reduction”.
